Test results taken from patent EP4581943A1, “AEROSOLISABLE MATERIAL FOR USE IN AN ARTICLE” (BT DE Investments Inc., priority 2024, dated 2025).

Key:
[1] = Solubility of CBC in solvent systems, step-wise addition, visual inspection; format: physicochemical; details: cumulative CBC concentration after addition; solvent PG:VG 70:30
Protocol: (§1) Solvent systems were prepared and then CBG was added in a step-wise fashion and mixed until dissolved (according to visual inspection). The time taken for each addition to be solubilized was recorded.
A similar approach was taken as for example 1, but this time CBC was assessed.

[2] = format: physicochemical
Protocol: as §1

CBG concentration the solvent system could sustain [2] [%w/w]	time taken to solubilize approximately 5% CBG [2] [h]	Structure (SMILES)	Concentration [1] [%w/w]
		CCCCCc1cc(O)c2c(c1)OC(C)(CCC=C(C)C)C=C2 (stereo not drawn) [CBC, cannabichromene]	3.0319
≤ 5	> 2	CCCCCc1cc(O)c(C/C=C(\C)CCC=C(C)C)c(O)c1 [CBG, cannabigerol]	
